# Like-named read-outs stand apart in the source and are kept apart here.
# Tests used:
# SETD2(1434-1711) = molecular target: T1, SETD2(1434-1711) (Homo sapiens, UniProt Q9BYW2); assay: SETD2 (1434-1711) assay; format: biochemical; settings: read-out: SETD2 (1434-1711)
# T1 construct: SETD2 (1434-1711) Assay; catalogue N/A
# T1 sequence (Q9BYW2 1434-1711): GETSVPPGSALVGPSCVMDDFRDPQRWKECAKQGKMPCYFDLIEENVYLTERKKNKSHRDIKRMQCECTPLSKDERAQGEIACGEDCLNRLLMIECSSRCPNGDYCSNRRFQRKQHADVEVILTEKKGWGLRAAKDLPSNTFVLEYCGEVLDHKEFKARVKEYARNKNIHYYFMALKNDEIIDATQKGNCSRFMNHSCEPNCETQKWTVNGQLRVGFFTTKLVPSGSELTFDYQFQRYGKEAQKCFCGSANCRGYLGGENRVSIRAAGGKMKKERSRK
# H3K36me3 in A549 cells = assay: In-Cell Western (ICW) assay of SETD2 inhibitors (A549 assay); format: cell-based, human; settings: A549 cells, read-out: SETD2 A549
# Method in brief: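 A549 cells seeded at 4,000/well onto compound and incubated 3 days at 37° C. Methanol-fixed cells stained overnight at 4° C with anti-H3K36me3 (1:1000), then IRDye 800CW secondary with DRAQ5 DNA counterstain. Plates read by Licor imaging at 700 and 800 channels.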
SMILES,IC50 (SETD2(1434-1711)),IC50 (H3K36me3 in A549 cells),IC50 (H3K36me3 in A549 cells; Homo sapiens)
Cc1ccc(F)c2cc(C(=O)Nc3cccc(N4CCC5(CC4)CN(C)C5)c3)[nH]c12 [compound 98],9 nM,200 nM,–
Cc1ccc(F)c2cc(C(=O)Nc3cccc(N4CCC(N(C)C)C(C)C4)c3)[nH]c12 (stereo not shown) [compound 99],30 nM,200 nM,–
Cc1ccc(F)c2cc(C(=O)Nc3cccc(N4CCN(C5CC5)C(=O)C4)c3)[nH]c12 [compound 100],30 nM,200 nM,–
Cc1ccc(F)c2cc(C(=O)Nc3cccc(C4CCOCC4)c3)[nH]c12 [compound 101],50 nM,200 nM,–
Cc1ccc(F)c2cc(C(=O)Nc3cccc(N4CC[C@H](N(C)C)C4)c3)[nH]c12 [compound 102],20 nM,200 nM,–
Cc1ccc(F)c2cc(C(=O)Nc3cccc(N4CCC(CO)(CO)CC4)c3)[nH]c12 [compound 103],30 nM,200 nM,–
CC(=O)N1CCCC12CCN(c1cc(F)cc(NC(=O)c3cc4c(F)ccc(C)c4[nH]3)c1)CC2 [compound 104],30 nM,200 nM,–
Cc1ccc(F)c2cc(C(=O)Nc3cc(F)cc(N4C[C@@H]5CCN(C)[C@@H]5C4)c3)[nH]c12 [compound 105],8 nM,200 nM,–
Cc1ccc(F)c2cc(C(=O)Nc3cc(Cl)cc([C@H]4CC[C@@H](N(C)C)CC4)c3)[nH]c12 [compound 106],3 nM,200 nM,–
Cc1ccc(F)c2cc(C(=O)Nc3cccc(-c4nnc(CO)s4)c3)[nH]c12 [compound 107],40 nM,200 nM,–
Cc1ccc(F)c2cc(C(=O)Nc3cccc(-c4cnco4)c3)[nH]c12 [compound 108],60 nM,–,200 nM
COCCN1CCC2(CC1)CN(c1cccc(NC(=O)c3cc4c(F)ccc(C)c4[nH]3)c1)C2 [compound 109],10 nM,200 nM,–
Cc1ccc(F)c2cc(C(=O)Nc3cccc(N4CCC5(CC4)CN(CC(F)(F)F)C5)c3)[nH]c12 [compound 110],100 nM,200 nM,–
Cc1ccc(F)c2cc(C(=O)Nc3cccc(N4CC[C@H](N(C)C)[C@H](C)C4)c3)[nH]c12 [compound 111],8 nM,200 nM,–
COC(=O)N1CCC2(CC1)CN(c1cccc(NC(=O)c3cc4c(F)ccc(C)c4[nH]3)c1)C2 [compound 112],30 nM,200 nM,–
Cc1ccc(F)c2cc(C(=O)Nc3cc(F)cc(C4CCN5C(=O)CC[C@@H]5C4)c3)[nH]c12 (stereo partly shown) [compound 114],60 nM,–,200 nM

SMILES,IC50 (SETD2(1434-1711)),IC50 (H3K36me3 in A549 cells),IC50 (H3K36me3 in A549 cells; Homo sapiens)
Cc1ccc(F)c2cc(C(=O)Nc3cccc(-c4ccncc4)c3)[nH]c12 [compound 116],40 nM,–,200 nM
Cc1ccc(F)c2cc(C(=O)Nc3cccc(N4CCC(CN(C)C)CC4)c3)[nH]c12 [compound 117],20 nM,200 nM,–
Cc1ccc(F)c2cc(C(=O)Nc3cccc(N4CCCC4=O)c3)[nH]c12 [compound 118],50 nM,–,200 nM
Cc1ccc(F)c2cc(C(=O)Nc3cccc(-c4nnc(C5CC5)o4)c3)[nH]c12 [compound 119],30 nM,200 nM,–
Cc1ccc(F)c2cc(C(=O)Nc3cc(Cl)cc(N4CCC(N(C)C)C4)c3)[nH]c12 (stereo not shown) [compound 120],6 nM,–,300 nM
COC(=O)N1CCN(c2cccc(NC(=O)c3cc4c(F)ccc(C)c4[nH]3)c2)CC1 [compound 121],50 nM,300 nM,–
Cc1ccc(F)c2cc(C(=O)Nc3cc(F)cc(N4C[C@H]5CCN(C)[C@H]5C4)c3)[nH]c12 [compound 122],10 nM,–,300 nM
CC(=O)N1CCCC(c2cccc(NC(=O)c3cc4c(F)ccc(C)c4[nH]3)c2)C1 (stereo not shown) [compound 123],50 nM,–,300 nM
Cc1ccc(F)c2cc(C(=O)Nc3cccc(N4CC5CCCNC5C4)c3)[nH]c12 (stereo not shown) [compound 124],7 nM,–,300 nM
Cc1ccc(F)c2cc(C(=O)Nc3cccc(N4CCCS4(=O)=O)c3)[nH]c12 [compound 125],80 nM,–,300 nM
Cc1ccc(F)c2cc(C(=O)Nc3cccc(N4CCC(O)CC4)c3)[nH]c12 [compound 126],50 nM,–,300 nM
COC(=O)N1CCC2(CCN(c3cccc(NC(=O)c4cc5c(F)ccc(C)c5[nH]4)c3)CC2)C1 [compound 127],40 nM,–,300 nM
CNC1CCN(c2cccc(NC(=O)c3cc4c(F)ccc(C)c4[nH]3)c2)C1 (stereo not shown) [compound 128],10 nM,–,300 nM
Cc1ccc(F)c2cc(C(=O)Nc3cccc(N4CCOC(C)C4)c3)[nH]c12 (stereo not shown) [compound 129],60 nM,–,300 nM
Cc1ccc(F)c2cc(C(=O)Nc3cccc(N4CCC(N(C)CCF)C4)c3)[nH]c12 (stereo not shown) [compound 130],40 nM,–,300 nM
Cc1ccc(F)c2cc(C(=O)N[C@H]3CCC[C@@H](c4cncnc4)C3)[nH]c12 [compound 131],100 nM,–,300 nM

# Next, values leading:
IC50 (SETD2(1434-1711)),IC50 (H3K36me3 in A549 cells),IC50 (H3K36me3 in A549 cells; Homo sapiens),SMILES
50 nM,–,300 nM,Cc1ccc(F)c2cc(C(=O)Nc3cccc(-c4nnc(CN(C)C)s4)c3)[nH]c12 [compound 132]
100 nM,–,300 nM,COCC1CN(c2cccc(NC(=O)c3cc4c(F)ccc(C)c4[nH]3)c2)CCO1 (stereo not shown) [compound 133]
20 nM,–,300 nM,Cc1ccc(F)c2cc(C(=O)Nc3cccc(N4CC5(CN(C)C5)C4)c3)[nH]c12 [compound 135]
400 nM,–,300 nM,Cc1ccc(F)c2cc(C(=O)Nc3cccc(-c4ccc(CNS(C)(=O)=O)cc4)c3)[nH]c12 [compound 136]
50 nM,–,300 nM,Cc1ccc(F)c2cc(C(=O)Nc3cccc(-c4cccnc4)c3)[nH]c12 [compound 137]
10 nM,–,300 nM,Cc1ccc(F)c2cc(C(=O)Nc3cccc(N4CCN(C(=O)C5CCCN(C)C5)CC4)c3)[nH]c12 (stereo not shown) [compound 138]
50 nM,–,300 nM,CNC(=O)N1CCN(c2cccc(NC(=O)c3cc4c(F)ccc(C)c4[nH]3)c2)CC1 [compound 139]
10 nM,–,300 nM,Cc1ccc(F)c2cc(C(=O)Nc3cc(F)cc(C4CCN(C(=O)CN(C)C)C4)c3)[nH]c12 (stereo not shown) [compound 140]
40 nM,–,300 nM,Cc1cccnc1C(Cc1cnn(CC2CC2)c1)NC(=O)c1cc2c(F)ccc(C)c2[nH]1 (stereo not shown) [compound 141]
40 nM,–,300 nM,Cc1ccc(F)c2cc(C(=O)Nc3cccc(N4CCC5(CCCN5CC(F)F)CC4)c3)[nH]c12 [compound 142]
60 nM,–,300 nM,Cc1ccc(F)c2cc(C(=O)Nc3cccc(N4CCOC(C5CC5)C4)c3)[nH]c12 (stereo not shown) [compound 143]
20 nM,–,300 nM,CNC1CCN(c2cccc(NC(=O)c3cc4c(F)ccc(C)c4[nH]3)c2)CC1 [compound 144]
30 nM,–,300 nM,Cc1ccc(F)c2cc(C(=O)Nc3cc(Cl)cc(-c4cncnc4)c3)[nH]c12 [compound 145]
200 nM,–,300 nM,Cc1ccc(F)c2cc(C(=O)Nc3cccc(N4CCN(C5CCOC5)CC4)c3)[nH]c12 (stereo not shown) [compound 146]
30 nM,–,300 nM,Cc1ccc(F)c2cc(C(=O)Nc3cccc(N4CCNC(=O)C4)c3)[nH]c12 [compound 147]
